Results published in ChEMBL document CHEMBL3739381, “Evaluation of the anti-inflammatory/chondroprotective activity of aldose reductase inhibitors in human chondrocyte cultures” (Medchemcomm, 2015).
Activity calls are given as the source filed them. The rule behind the calls is not given here.

Experiments:
[1] = Cytotoxicity against human articular chondrocytes assessed as cell viability at 2.5 to 10 uM by MTT assay
Homo sapiens [2] = species on record: Homo sapiens; assay: Anti-inflammatory in human articular chondrocytes assessed as inhibition of IL-1beta-induced NFkappa-B p65 production at 2.5 to 10 uM after 72 hrs by Western blot analysis; type: functional, cell-based
Homo sapiens [3] = species on record: Homo sapiens; assay: Anti-inflammatory in human articular chondrocytes assessed as inhibition of IL-1beta-induced ICAM-1 production at 2.5 to 10 uM after 72 hrs by Western blot analysis; type: functional, cell-based
Homo sapiens [4] = species on record: Homo sapiens; assay: Anti-inflammatory in human articular chondrocytes assessed as inhibition of IL-1beta-induced nitrite production after 72 hrs by Griess assay; type: functional, cell-based
Homo sapiens [5] = species on record: Homo sapiens; assay: Anti-inflammatory in human articular chondrocytes assessed as inhibition of IL-1beta-induced reduction of GAG level after 72 hrs by spectrophotometry analysis; type: functional, cell-based
[6] = Antioxidant activity of the compound in AAPH solution assessed as trolox equivalents for reduction of oxidative degradation by ORAC assay; type: physicochemical
Stromelysin-1 = Stromelysin-1 (Homo sapiens, UniProt P08254); assay: Inhibition of MMP3 (unknown origin) using Pro-Leu-Gly-Leu-Dpa-Ala-Arg-NH2 as substrate after 3 mins by fluorimetric assay
Collagenase 3 = Collagenase 3 (Homo sapiens, UniProt P45452); assay: Inhibition of MMP13 (unknown origin) using Pro-Leu-Gly-Leu-Dpa-Ala-Arg-NH2 as substrate after 3 mins by fluorimetric assay

Stromelysin-1, sequence (P08254 whole entry): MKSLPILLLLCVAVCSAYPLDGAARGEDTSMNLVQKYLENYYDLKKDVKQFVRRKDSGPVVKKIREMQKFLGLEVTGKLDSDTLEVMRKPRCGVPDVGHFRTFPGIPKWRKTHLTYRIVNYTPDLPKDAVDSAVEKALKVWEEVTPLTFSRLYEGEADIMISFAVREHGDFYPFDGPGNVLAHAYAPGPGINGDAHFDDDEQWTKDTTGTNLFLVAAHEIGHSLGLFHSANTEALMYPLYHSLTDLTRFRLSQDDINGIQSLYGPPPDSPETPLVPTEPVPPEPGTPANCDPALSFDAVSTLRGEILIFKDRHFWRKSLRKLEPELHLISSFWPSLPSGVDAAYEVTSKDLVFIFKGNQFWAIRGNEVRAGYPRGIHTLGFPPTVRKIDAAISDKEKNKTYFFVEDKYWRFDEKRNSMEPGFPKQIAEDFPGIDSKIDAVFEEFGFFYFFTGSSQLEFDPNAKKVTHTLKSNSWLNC

Structure (SMILES) | Activity [1] | inhibition (Homo sapiens [2]) | inhibition (Homo sapiens [3]) | inhibition (Homo sapiens [4]) | inhibition (Homo sapiens [5]) | Activity [6] [µM] | IC50 (Stromelysin-1; read-out: IC50) [µM] | IC50 (Collagenase 3) [µM] | IC50 (Stromelysin-1)
O=C1NC(=S)S/C1=C\c1cccc(Oc2ccccc2)c1 | Non-toxic | Active | Active | Dose-dependent effect | Dose-dependent effect | 0.39 | 17.5 | 55.3 | –
O=C1NC(=S)S/C1=C\c1ccc(Oc2ccccc2)cc1 | Non-toxic | Active | Active | Dose-dependent effect | Dose-dependent effect | 0.52 | 48.4 | 3.99 | –
O=C(O)CN1C(=O)/C(=C/c2ccc(OCc3ccccc3)cc2)SC1=S | Non-toxic | Active | Active | Dose-dependent effect | Dose-dependent effect | 1.078 | 58.5 | 6.97 | –
O=C(O)CN1C(=O)/C(=C/c2cccc(Oc3ccccc3)c2)SC1=S | Non-toxic | Active | Active | Dose-dependent effect | Dose-dependent effect | 0.61 | 14.2 | 4.7 | –
O=C1NC(=S)S/C1=C\c1cccc(OCc2ccccc2)c1 | Non-toxic | Active | Active | Dose-dependent effect | Dose-dependent effect | 0.63 | – | 5.89 | Not Active
O=C1NC(=S)S/C1=C\c1ccc(OCc2ccccc2)cc1 | Non-toxic | Active | Active | Dose-dependent effect | Dose-dependent effect | 0.6 | 77.4 | 0.64 | –
O=C(O)CN1C(=O)/C(=C/c2ccc(Oc3ccccc3)cc2)SC1=S | Non-toxic | Active | Active | Dose-dependent effect | Dose-dependent effect | 0.76 | 8.96 | 3.8 | –
O=C(O)CN1C(=O)/C(=C/c2cccc(OCc3ccccc3)c2)SC1=S | Non-toxic | Active | Active | Dose-dependent effect | Dose-dependent effect | 0.65 | 4.19 | 1.59 | –
